One test relates to DUX4. Particulars: cited from earlier work.
Test [1] relates to global H3K18 and H3K27 acetylation (p300/CBP). The test can be described thus: Western blot for acetylated H3K18 and H3K27 in cell lines overexpressing CIC-DUX4. Format: cell-based, mouse and human. Particulars: all analyzed CIC-DUX4 overexpressing cell lines, 18 hours. On the procedure:
(§1) For western blot analyses, cells were lysed with RIPA buffer supplemented with protease inhibitor cocktail (Complete, Roche), and proteins were separated on 10% SDS-PAGE gels, then transferred to PVDF membranes. Antibodies were diluted in 5% skim milk in TBST and incubated overnight at 4° C. or 1 hour at RT. An appropriate secondary HRP conjugated antibody was incubated for 1 hour at RT. Membranes were then washed with TBST, and signal was visualized using Pierce ECL western blotting substrate (Thermo Scientific). For immunofluorescence, cells cultured in 96 well plates were fixed in 4% PFA for 10 min., washed twice with PBS, permeabilized with 0.3% Triton X for 30 min, and blocked with 3% BSA for 1 hour at R/T. Primary antibodies were diluted in 3% BSA and incubated o/n at 4° C. An appropriate conjugated secondary antibody was applied for 60 min at RT. Nuclei were visualized using DAPI (1:5000, Sigma). […]
(In general: In western blotting, separated proteins are transferred to a membrane and probed.)

In the next test the test system is p300 and CBP. Particulars: in vitro and in vivo; cited from earlier work.
For another test, the system named is LCHN-Myoblast. The test can be described thus: ATP assay on LCHN-Myoblast. The class given is cell-based, human. Particulars: after 3 days of treatment (FIG. 10C). On the procedure: Basal media were purchased from HyClone, fetal bovine serum (FBS) was from PeakSerum (Ps-FB3, lot 293Q16), and Glutamax (Glu) and Penicillin/Streptomycin (P/S) were from GIBCO. NCC-CDS-X1 (CIC-DUX4 sarcoma cell line, a generous gift from Tadashi Kondo) cell line was cultured in RPMI with 10% FBS, Glu and P/S, Kitra-SRS (CIC-DUX4 sarcoma cell line, a generous gift from Hidetatsu Otani), 3T3, 293T and C2C12 cell lines were cultured in DMEM/10% FBS/Glu/P/S. The immortalized human myoblast LHCN-M2 cell line was cultured in proliferation medium: F10 supplemented with 20% FBS, 2-mercaptoethanol 1× (GIBCO), 10^−9 M dexamethasone (Sigma), 10 ng/mL bFGF (Peprotech), and Glu/P/S. All cells were cultured at 37° C. in a 5% CO2 atmosphere.
Cell lines were plated in a 96 well dish (1×10^5 cells/well), and the following day were treated with iP300w or its stereoisomers. ATP assays were performed using CellTiter-Glo® Luminescent Cell Viability Assay (Promega) according to the manufacturer's instructions. Luminescence was analyzed on POLARstar Optima Microplate Reader (BMG Labtech, Offenburg, Germany). […]

Test [2] concerns Panc1, MiaPaca2, CFPac1 pancreatic cancer cells. The test can be described thus: Cell viability (ATP) assay in pancreatic cancer cells. The class given is cell-based. Particulars: serial dilutions, 48 hours. On the procedure: (§2) Cell lines were plated in a 96 well dish (1×10^5 cells/well), and the following day were treated with iP300w or its stereoisomers. ATP assays were performed using CellTiter-Glo® Luminescent Cell Viability Assay (Promega) according to the manufacturer's instructions. Luminescence was analyzed on POLARstar Optima Microplate Reader (BMG Labtech, Offenburg, Germany).
(§3) Pancreatic and colorectal cancer cell lines were treated with iP300w to further distinguish its specificity to CDS from general cytotoxicity. p300/CBP have been correlated with the invasive and migratory properties of pancreatic and colorectal cancers (Iyer, N. G. et al., Proceedings of the National Academy of Sciences of the United States of America 101, 7386-7391 (2004); and Paladino, D. et al, Oncotarget 7, 7253-7267 (2016)). […] This further supports the specific efficacy of iP300w against cancers bearing p300-dependent oncogenic fusion transcription factors (such as CIC-DUX4), vis-à-vis cancers that may show some degree of growth inhibition by iP300w due simply to p300-dependent proliferative pathways.

Test [3] has as its system HTC116, MKN28, KATO3 colorectal cancer cells. The test can be described thus: Cell viability (ATP) assay in colorectal cancer cells. Particulars: serial dilutions, 48 hours. The class given is cell-based. On the procedure:
as §2, §3

Test in test [4]: as above
Format: cell-based. Particulars: cancer and colorectal cell lines expected to have a general p300/CBP dependence. As to the method: as §2, §3

The test system of test [5] is NCC-CDS-X1 and Kitra-SRS cell cultures. The test can be described thus: Morphology of monolayer CDS cell cultures. The class given is cell-based, human. Particulars: both CDS cell lines. As to the method:
To evaluate the consequences of iP300w treatment of CDS cells, its effects on both monolayer cultures as well as 3D spheres was determined in both CDS cell lines. Inhibition of proliferation was morphologically apparent as early as 24 hours after iP300w treatment and progressed with time (FIG. 2A). Using the cell viability assay, it was determined that 0.003 μM was the lowest effective concentration on day 2 in both lines (FIG. 2B).

Test [6] relates to global H3K18 and H3K27 acetylation. The test can be described thus: Western blot for H3 acetylation markers in NCC-CDS-X1 cells. The class given is cell-based, human. Particulars: NCC-CDS-X1, 18 hours. On the procedure: as §1

Take `CNC(=O)Cn1cc(-c2ccc3c(c2)[C@H](F)C[C@]32NC(=O)N(CC(=O)N(Cc3ccc(F)cc3)[C@@H](C)C(F)(F)F)C2=O)cn1` (single isomer, unassigned) [iP300w]: in the test on DUX4, the “effect on cell death caused by full length DUX4” value is “cell death was prevented” and the “effect on gene expression changes caused by DUX4” value is “ability to reverse gene expression changes caused by DUX4”. Also, the “effect on CIC-DUX4-induced global H3K18 and H3K27 acetylation” value in test [1] is reported as “abolished”. In addition, in the test on p300 and CBP, the “inhibition of acetylation by p300 and CBP” value is “inhibit acetylation by p300 and CBP both in vitro and in vivo”. Further, the “concentration giving mild suppression of proliferation” value in the test with LCHN-Myoblast was no less than 0.3 µM. Moreover, the “effect on cell viability” value in test [2] was “no significant effect on cell viability”. In addition, in [3], the “effect on cell viability” value is reported as “no significant effect on cell viability”. In addition, the “concentration at which growth inhibition is first observed” value in test [4] is no less than 0.3 µM. Further, the “time at which inhibition of proliferation is morphologically apparent” value in test [5] amounted to 24 hours. Besides, in test [6], the “effect on global H3K18 and H3K27 acetylation” value is “reduces global H3K18 and H3K27 acetylation”.
